Data reported in ChEMBL document CHEMBL1201861, “Genomics of Drug Sensitity in Cancer screening data, Wellcome Trust Sanger Institute”.

Experiments:
[1] = test system: NCI-H2122; assay: cells; format: functional, cell-based, Homo sapiens
Description: SANGER: Inhibition of human NCI-H2122 cell growth in a cell viability assay.

[2] = test system: HT-1376; assay: cells; format: functional, cell-based, Homo sapiens
Description: SANGER: Inhibition of human HT-1376 cell growth in a cell viability assay.

[3] = test system: SK-MES-1; assay: cells; format: functional, cell-based, Homo sapiens;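 further: growth inhibition of human SK-MES-1 cells, read out with a cell viability assay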
Description: SANGER: Inhibition of human SK-MES-1 cell growth in a cell viability assay.

[4] = test system: NCI-H1694; assay: cells; format: functional, cell-based, Homo sapiens;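 further: cell viability assay measuring inhibition of growth in human NCI-H1694 cells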
Description: SANGER: Inhibition of human NCI-H1694 cell growth in a cell viability assay.

[5] = test system: SW1463; assay: cells; format: functional, cell-based, Homo sapiens;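 further: growth inhibition of SW1463 cells, determined with a cell viability assay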
Description: SANGER: Inhibition of human SW1463 cell growth in a cell viability assay.

[6] = test system: BHT-101; assay: cells; format: functional, cell-based, Homo sapiens
Description: SANGER: Inhibition of human BHT-101 cell growth in a cell viability assay.

[7] = test system: AN3-CA; assay: cells; format: functional, cell-based, Homo sapiens;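 further: growth inhibition of human AN3-CA cells measured by a cell viability assay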
Description: SANGER: Inhibition of human AN3-CA cell growth in a cell viability assay.

[8] = test system: SAOS-2; assay: cells; format: functional, cell-based, Homo sapiens;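 further: growth inhibition of human Saos-2 cells determined by a cell viability assay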
Description: SANGER: Inhibition of human Saos-2 cell growth in a cell viability assay.

[9] = test system: CPC-N; assay: cells; format: functional, cell-based, Homo sapiens;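 further: growth inhibition of CPC-N cells, with a cell viability assay as the readout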
Description: SANGER: Inhibition of human CPC-N cell growth in a cell viability assay.

[10] = test system: CP50-MEL-B; assay: cells; format: functional, cell-based, Homo sapiens;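 further: growth inhibition of the human cell line, measured with a cell viability read-out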
Description: SANGER: Inhibition of human CP50-MEL-B cell growth in a cell viability assay.

[11] = test system: KYSE-150 cell line; assay: cells; format: functional, cell-based, Homo sapiens;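 further: growth inhibition of human KYSE-150 cells, read out with a cell viability assay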
Description: SANGER: Inhibition of human KYSE-150 cell growth in a cell viability assay.

[12] = test system: BFTC-905; assay: cells; format: functional, cell-based, Homo sapiens
Description: SANGER: Inhibition of human BFTC-905 cell growth in a cell viability assay.

[13] = test system: KP-N-YN; assay: cells; format: functional, cell-based, Homo sapiens;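 further: growth inhibition of KP-N-YN cells, read out with a cell viability assay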
Description: SANGER: Inhibition of human KP-N-YN cell growth in a cell viability assay.

[14] = test system: HT55; assay: cells; format: functional, cell-based, Homo sapiens;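 further: cell viability readout measuring growth inhibition of human HT55 cells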
Description: SANGER: Inhibition of human HT55 cell growth in a cell viability assay.

[15] = test system: EB2; assay: cells; format: functional, cell-based, Homo sapiens;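 further: growth inhibition of EB2 cells, read out with a cell viability assay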
Description: SANGER: Inhibition of human EB2 cell growth in a cell viability assay.

[16] = test system: ECC4; assay: cells; format: functional, cell-based, Homo sapiens;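 further: growth inhibition of ECC4 cells, read out with a cell viability assay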
Description: SANGER: Inhibition of human ECC4 cell growth in a cell viability assay.

[17] = test system: HCT-116; assay: cells; format: functional, cell-based, Homo sapiens
Description: SANGER: Inhibition of human HCT-116 cell growth in a cell viability assay.

[18] = test system: HOP-92; assay: cells; format: functional, cell-based, Homo sapiens;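 further: cell viability readout, with IC50 reflecting inhibition of HOP-92 cell growth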
Description: SANGER: Inhibition of human HOP-92 cell growth in a cell viability assay.

[19] = test system: HCC1806; assay: cells; format: functional, cell-based, Homo sapiens;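 further: growth inhibition of the cancer cell line, determined with a cell viability assay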
Description: SANGER: Inhibition of human HCC1806 cell growth in a cell viability assay.

[20] = test system: Daudi; assay: cells; format: functional, cell-based, Homo sapiens
Description: SANGER: Inhibition of human Daudi cell growth in a cell viability assay.

[21] = test system: RVH-421; assay: cells; format: functional, cell-based, Homo sapiens
Description: SANGER: Inhibition of human RVH-421 cell growth in a cell viability assay.

[22] = test system: PFSK-1; assay: cells; format: functional, cell-based, Homo sapiens;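 further: cell viability assay measuring how strongly compounds suppress growth of human PFSK-1 cells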
Description: SANGER: Inhibition of human PFSK-1 cell growth in a cell viability assay.

[23] = test system: HCT-15; assay: cells; format: functional, cell-based, Homo sapiens;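 further: cell viability readout, IC50 reflecting suppression of HCT-15 cell growth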
Description: SANGER: Inhibition of human HCT-15 cell growth in a cell viability assay.

[24] = test system: YKG-1; assay: cells; format: functional, cell-based, Homo sapiens
Description: SANGER: Inhibition of human YKG-1 cell growth in a cell viability assay.

[25] = test system: PA-1; assay: cells; format: functional, cell-based, Homo sapiens;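 further: IC50 for suppression of PA-1 cell proliferation, determined with a cell viability read-out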
Description: SANGER: Inhibition of human PA-1 cell growth in a cell viability assay.

[26] = test system: EHEB; assay: cells; format: functional, cell-based, Homo sapiens
Description: SANGER: Inhibition of human EHEB cell growth in a cell viability assay.

[27] = test system: CAL-54; assay: cells; format: functional, cell-based, Homo sapiens;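 further: growth inhibition of CAL-54 cells, read out by a viability measurement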
Description: SANGER: Inhibition of human CAL-54 cell growth in a cell viability assay.

[28] = test system: SW1710; assay: cells; format: functional, cell-based, Homo sapiens;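 further: growth inhibition of SW1710 cells, determined with a cell viability assay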
Description: SANGER: Inhibition of human SW1710 cell growth in a cell viability assay.

[29] = test system: RPMI 8402; assay: SANGER: Inhibition of human RPMI-8402 cell growth in a cell viability assay.; format: functional, cell-based; settings: read-out: IC50
[30] = test system: JEG-3; assay: cells; format: functional, cell-based, Homo sapiens;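 further: growth inhibition of human JEG-3 cells, read out with a cell viability assay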
Description: SANGER: Inhibition of human JEG-3 cell growth in a cell viability assay.

[31] = test system: SF-295; assay: cells; format: functional, cell-based, Homo sapiens;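 further: growth inhibition of SF-295 cells, read out with a cell viability assay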
Description: SANGER: Inhibition of human SF295 cell growth in a cell viability assay.

[32] = test system: P31-FUJ; assay: cells; format: functional, cell-based, Homo sapiens;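 further: growth inhibition of P31-FUJ cells, read out with a viability assay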
Description: SANGER: Inhibition of human P31-FUJ cell growth in a cell viability assay.

[33] = test system: SUP-T1; assay: cells; format: functional, cell-based, Homo sapiens;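 further: growth inhibition of human SUP-T1 cells, read out as cell viability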
Description: SANGER: Inhibition of human SUP-T1 cell growth in a cell viability assay.

[34] = test system: ESS-1; assay: cells; format: functional, cell-based, Homo sapiens;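 further: growth inhibition of human ESS-1 cells, read out by a cell viability assay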
Description: SANGER: Inhibition of human ESS-1 cell growth in a cell viability assay.

[35] = test system: SNU-449; assay: cells; format: functional, cell-based, Homo sapiens
Description: SANGER: Inhibition of human SNU-449 cell growth in a cell viability assay.

[36] = test system: NCI-H1963; assay: cells; format: functional, cell-based, Homo sapiens;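 further: cell growth inhibition of the human line, determined with a cell viability assay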
Description: SANGER: Inhibition of human NCI-H1963 cell growth in a cell viability assay.

[37] = test system: UMC-11; assay: cells; format: functional, cell-based, Homo sapiens;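 further: growth inhibition of UMC-11 cells, read out with a cell viability assay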
Description: SANGER: Inhibition of human UMC-11 cell growth in a cell viability assay.

[38] = test system: FTC-133; assay: cells; format: functional, cell-based, Homo sapiens
[39] = test system: NCI-H1993; assay: cells; format: functional, cell-based, Homo sapiens;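 further: growth inhibition of the cancer cell line, assessed with a cell viability assay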
Description: SANGER: Inhibition of human NCI-H1993 cell growth in a cell viability assay.

[40] = test system: IMR-5; assay: cells; format: functional, cell-based, Homo sapiens;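 further: growth inhibition of human IMR-5 cells, read out with a cell viability assay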
Description: SANGER: Inhibition of human IMR-5 cell growth in a cell viability assay.

[41] = test system: NCI-H2227; assay: cells; format: functional, cell-based, Homo sapiens
Description: SANGER: Inhibition of human NCI-H2227 cell growth in a cell viability assay.

[42] = test system: MG-63; assay: cells; format: functional, cell-based, Homo sapiens;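 further: growth inhibition of human MG-63 cells, read out with a cell viability assay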
Description: SANGER: Inhibition of human MG-63 cell growth in a cell viability assay.

[43] = test system: CAL-51; assay: cells; format: functional, cell-based, Homo sapiens;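 further: human CAL-51 cell line, growth inhibition read out via a cell viability assay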
Description: SANGER: Inhibition of human CAL-51 cell growth in a cell viability assay.

[44] = test system: TE-441-T; assay: cells; format: functional, cell-based, Homo sapiens
Description: SANGER: Inhibition of human TE-441-T cell growth in a cell viability assay.

[45] = test system: YT; assay: cells; format: functional, cell-based, Homo sapiens
Description: SANGER: Inhibition of human YT cell growth in a cell viability assay.

Q: For `Cc1cc([N+](=O)[O-])ccc1NS(=O)(=O)c1cc(Cl)ccc1Cl`, which IC50 ([1]; Homo sapiens, NCI-H2122) is on record?
A: 1.17 µM

Q: And the IC50 ([2]; Homo sapiens, HT-1376)?
A: 3.81 µM

Q: And the IC50 ([3]; Homo sapiens, SK-MES-1)?
A: 2.07 µM

Q: What about the IC50 ([4]; Homo sapiens, NCI-H1694) of the same compound?
A: 22.8 µM

Q: And the IC50 ([5]; Homo sapiens, SW1463)?
A: 7.85 µM

Q: And the IC50 ([6]; Homo sapiens, BHT-101)?
A: 21.4 µM

Q: And the IC50 ([7]; Homo sapiens, AN3-CA)?
A: 1.08 µM

Q: What about the IC50 ([8]; Homo sapiens, SAOS-2) of the same compound?
A: 6.94 µM

Q: And the IC50 ([9]; Homo sapiens, CPC-N)?
A: > 32 µM

Q: And the IC50 ([10]; Homo sapiens, CP50-MEL-B)?
A: 1.03 µM

Q: And the IC50 ([11]; Homo sapiens, KYSE-150)?
A: 5.06 µM

Q: And the IC50 ([12]; Homo sapiens, BFTC-905)?
A: 3.65 µM

Q: And the IC50 ([13]; Homo sapiens, KP-N-YN)?
A: 10.2 µM

Q: And the IC50 ([14]; Homo sapiens, HT55)?
A: > 32 µM

Q: And the IC50 ([15]; Homo sapiens, EB2)?
A: > 32 µM

Q: And the IC50 ([16]; Homo sapiens, ECC4)?
A: > 32 µM

Q: What about the IC50 ([17]; Homo sapiens, HCT-116) of the same compound?
A: 3.72 µM

Q: And the IC50 ([18]; Homo sapiens, HOP-92)?
A: 2.81 µM

Q: And the IC50 ([19]; Homo sapiens, HCC1806)?
A: 20.5 µM

Q: What about the IC50 ([20]; Homo sapiens, Daudi) of the same compound?
A: 1.25 µM

Q: What about the IC50 ([21]; Homo sapiens, RVH-421) of the same compound?
A: 0.931 µM

Q: And the IC50 ([22]; Homo sapiens, PFSK-1)?
A: 12.4 µM

Q: What about the IC50 ([23]; Homo sapiens, HCT-15) of the same compound?
A: 6.87 µM

Q: What about the IC50 ([24]; Homo sapiens, YKG-1) of the same compound?
A: 5.66 µM

Q: What about the IC50 ([25]; Homo sapiens, PA-1) of the same compound?
A: 2.9 µM

Q: And the IC50 ([26]; Homo sapiens, EHEB)?
A: 9.79 µM

Q: What about the IC50 ([27]; Homo sapiens, CAL-54) of the same compound?
A: 5.44 µM

Q: What about the IC50 ([28]; Homo sapiens, SW1710) of the same compound?
A: 2.33 µM

Q: What about the IC50 ([29]; Homo sapiens, RPMI 8402) of the same compound?
A: 6.85 µM

Q: What about the IC50 ([30]; Homo sapiens, JEG-3) of the same compound?
A: 4.9 µM

Q: What about the IC50 ([31]; Homo sapiens, SF-295) of the same compound?
A: 2.34 µM

Q: And the IC50 ([32]; Homo sapiens, P31-FUJ)?
A: 7.77 µM

Q: And the IC50 ([33]; Homo sapiens, SUP-T1)?
A: 5.41 µM

Q: What about the IC50 ([34]; Homo sapiens, ESS-1) of the same compound?
A: 7.38 µM

Q: What about the IC50 ([35]; Homo sapiens, SNU-449) of the same compound?
A: 5.94 µM

Q: What about the IC50 ([36]; Homo sapiens, NCI-H1963) of the same compound?
A: 8.68 µM

Q: What about the IC50 ([37]; Homo sapiens, UMC-11) of the same compound?
A: 1.09 µM

Q: And the IC50 ([38]; Homo sapiens, FTC-133)?
A: 6.74 µM

Q: What about the IC50 ([39]; Homo sapiens, NCI-H1993) of the same compound?
A: 17.2 µM

Q: And the IC50 ([40]; Homo sapiens, IMR-5)?
A: 11.2 µM

Q: And the IC50 ([41]; Homo sapiens, NCI-H2227)?
A: > 32 µM

Q: And the IC50 ([42]; Homo sapiens, MG-63)?
A: 5.96 µM

Q: What about the IC50 ([43]; Homo sapiens, CAL-51) of the same compound?
A: 2750 nM

Q: What about the IC50 ([44]; Homo sapiens, TE-441-T) of the same compound?
A: 7.31 µM

Q: And the IC50 ([45]; Homo sapiens, YT)?
A: 1.83 µM

Q: Which results are given for BLEOMYCIN?
A: IC50 ([1]; nci-h2122): 0.51 µM; IC50 ([2]; ht-1376): 9.74 µM; IC50 ([3]; sk-mes-1): 3.07 µM; IC50 ([4]; nci-h1694): 43.9 µM; IC50 ([5]; sw1463): 23.4 µM; IC50 ([6]; bht-101): 7.34 µM; IC50 ([7]; an3-ca): 2.55 µM; IC50 ([8]; saos-2): 0.172 µM; IC50 ([9]; cpc-n): 52.5 µM; IC50 ([10]; cp50-mel-b): 3950 µM; IC50 ([11]; kyse-150): 0.00265 µM; IC50 ([12]; bftc-905): 2.32 µM; IC50 ([13]; kp-n-yn): 26.3 µM; IC50 ([14]; ht55): 1040 µM; IC50 ([15]; eb2): 0.691 µM; IC50 ([16]; ecc4): 56.7 µM; IC50 ([17]; hct-116): 2.88 µM; IC50 ([18]; hop-92): 9.26 µM; IC50 ([19]; hcc1806): 0.00854 µM; IC50 ([20]; daudi): 1.67 µM; IC50 ([21]; rvh-421): 2.57 µM; IC50 ([22]; pfsk-1): 33.4 µM; IC50 ([23]; hct-15): 0.0951 µM; IC50 ([24]; ykg-1): 3.26 µM; IC50 ([25]; pa-1): 2.02 µM; IC50 ([26]; eheb): 1.61 µM; IC50 ([27]; cal-54): 0.191 µM; IC50 ([28]; sw1710): 0.295 µM; IC50 ([29]; rpmi-8402): 30.7 µM; IC50 ([30]; jeg-3): 8.55 µM; IC50 ([31]; sf-295): 0.0214 µM; IC50 ([32]; p31-fuj): 460 µM; IC50 ([33]; sup-t1): 0.000251 µM; IC50 ([34]; ess-1): 0.187 µM; IC50 ([35]; snu-449): 0.389 µM; IC50 ([36]; nci-h1963): 193 µM; IC50 ([37]; umc-11): 2360 µM; IC50 ([38]; ftc-133): 1.29 µM; IC50 ([39]; nci-h1993): 646 µM; IC50 ([40]; imr-5): 0.137 µM; IC50 ([41]; nci-h2227): 721 µM; IC50 ([42]; mg-63): 1.49 µM; IC50 ([43]; cal-51): 0.099 nM; IC50 ([44]; te-441-t): 24.6 µM; IC50 ([45]; yt): 1.32 µM
